Laboratory results from PubChem BioAssay (NCI).
Values joined by “and” are separate entries in the source; they are usually repeats but may differ in a detail not shown here. Equal values may be shown once.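 Test compounds were applied to cells in 96-well plates for 48 hours at 5 doses. GI50 is the concentration that inhibits growth by half. The concentration for full growth arrest is given as TGI.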

Tests used:
Assay in all cases: DTP human tumour cell line panel, 48 h
ACHN renal = test system: ACHN renal
CCRF-CEM leukemia = test system: CCRF-CEM leukemia
HOP-92 NSCLC = test system: HOP-92 NSCLC
OVCAR-8 ovarian = test system: OVCAR-8 ovarian
SF-268 CNS = test system: SF-268 CNS
SF-295 CNS = test system: SF-295 CNS
SF-539 CNS = test system: SF-539 CNS
TK-10 renal = test system: TK-10 renal
UACC-62 melanoma = test system: UACC-62 melanoma

Structure (SMILES) | TGI (ACHN renal) | TGI (CCRF-CEM leukemia) | TGI (HOP-92 NSCLC) | TGI (OVCAR-8 ovarian) | TGI (SF-268 CNS) | TGI (SF-295 CNS) | TGI (SF-539 CNS) | TGI (TK-10 renal) | TGI (UACC-62 melanoma) | GI50 (ACHN renal) | GI50 (HOP-92 NSCLC) | GI50 (OVCAR-8 ovarian) | GI50 (SF-268 CNS) | GI50 (SF-295 CNS) | GI50 (SF-539 CNS) | GI50 (TK-10 renal) | GI50 (UACC-62 melanoma) | GI50 (CCRF-CEM leukemia)
CC1OC(n2cc(F)c(=O)[nH]c2=O)C=CC1O (stereo unspecified) | > 100 µM | > 77.9 µM | > 100 µM | > 100 µM | > 100 µM | > 100 µM | > 100 µM | > 100 µM | > 100 µM | – | – | – | – | – | – | – | – | –
Cc1ccc(S(=O)(=O)NCC2CCCCC2=O)cc1 (stereo unspecified) | – | > 100 µM | 97.2 µM | > 100 µM | > 100 µM | > 100 µM | > 100 µM | > 100 µM | > 100 µM | – | – | – | – | – | – | – | – | –
COc1ccc(N(C)c2ncnc3occ(C)c23)cc1 | > 100 µM | – | > 100 µM | > 100 µM | > 62.3 µM | > 100 µM | < 0.01 µM | > 100 µM | > 100 µM | 0.0193 µM | 0.0625 µM | < 0.01 µM | 0.0101 µM | < 0.01 µM | < 0.01 µM | 55.6 µM | < 0.01 µM | –
CCOP(=O)(Cc1ccc(CP(=O)(OCC)OCC)n1C)OCC | > 100 µM | > 100 µM | > 100 µM | > 100 µM | > 100 µM | > 100 µM | > 100 µM | > 100 µM | > 100 µM | – | – | – | – | – | – | – | – | –
CCOC(=O)Oc1c(OC)cc(C(=O)NC2CCc3cc(OC)c(OC)c(OC)c3-c3ccc(SC)c(=O)cc32)cc1OC (stereo unspecified) | > 70 µM | – | 0.871 µM | 10.9 µM | 21.4 µM | – | 0.057 µM and 0.00743 µM | > 70 µM | > 70 µM | 0.235 µM | – | 0.0155 µM | 0.0174 µM | 0.0242 µM | < 0.007 µM | 0.163 µM | 0.00881 µM | –
CC(C)(C)OC(=O)NCC(=O)OCc1ccccc1 | > 100 µM | > 100 µM | > 100 µM | > 100 µM | > 100 µM | > 100 µM | > 100 µM | > 100 µM | > 100 µM | – | – | – | – | – | – | – | – | –
O=[n+]1c2c(n([O-])c3ccccc31)CCCCCCCCCC2 | > 100 µM | > 100 µM | > 100 µM | – | > 100 µM | > 100 µM | > 100 µM | > 100 µM | > 100 µM | – | – | – | – | – | – | – | – | –
CC(=O)O.CC(=O)O.CC(=O)O.CC(=O)O.CC(=O)O.CC(=O)O.O.[Ti].[Ti] | > 100 µM | > 100 µM | > 100 µM | > 100 µM | > 100 µM | > 100 µM | > 100 µM | > 100 µM | > 100 µM | > 100 µM | > 100 µM | > 100 µM | > 100 µM | > 100 µM | > 100 µM | > 100 µM | > 100 µM | > 100 µM
CC1=Nc2ccccc2C1C(Cc1ccccc1N)c1c(C)[nH]c2ccccc12 (stereo unspecified) | 30.1 µM | 47.2 µM | 26.1 µM | 32.6 µM | 21.5 µM | 25.8 µM | 31.5 µM | 30.8 µM | 26.3 µM | – | – | – | – | – | – | – | – | –
O=C1c2ccccc2C2(Br)C(=O)c3ccccc3C12 (stereo unspecified) | > 100 µM | > 100 µM | > 100 µM | > 100 µM | > 100 µM | > 100 µM | > 100 µM | > 100 µM | > 100 µM | – | – | – | – | – | – | – | – | –
O=[N+]([O-])c1nccn1CC(O)c1ccc(F)cc1 (stereo unspecified) | > 100 µM | > 100 µM | > 100 µM | > 100 µM | > 100 µM | > 100 µM | > 100 µM | > 100 µM | > 100 µM | – | – | – | – | – | – | – | – | –
O=C(O)CNc1cc(-c2ccccc2)nc(NCC(=O)O)n1 | > 100 µM | > 100 µM | > 100 µM | > 100 µM | – | > 100 µM | > 100 µM | > 100 µM | > 100 µM | – | – | – | – | – | – | – | – | –
CNC(=S)NC1CCCCC1NC(=S)NC (stereo unspecified) | > 100 µM | > 100 µM | > 100 µM | > 100 µM | > 100 µM | > 100 µM | > 100 µM | – | > 100 µM | – | – | – | – | – | – | – | – | –
COC(=O)C(C(=O)C(=O)Nc1cccc(OC)c1)c1cnc2ccccc2n1 (stereo unspecified) | > 100 µM | > 100 µM | > 100 µM | > 100 µM | > 100 µM | > 100 µM | > 100 µM | > 100 µM | > 100 µM | – | – | – | – | – | – | – | – | –
O=C(Nc1nc2ncn(CCI)c2c(=O)[nH]1)c1ccccc1 | > 100 µM | > 100 µM | 81 µM | > 62.2 µM | 50.3 µM | > 87.4 µM | > 64.6 µM | > 100 µM | > 100 µM | – | – | – | – | – | – | – | – | –
O=S(O)CCCCSSCC(O)C(O)CSSCCCCS(=O)O (stereo unspecified) | 68.7 µM and 90 µM | 31.9 µM and 26.2 µM | 79.7 µM and 96.5 µM | 96.5 µM and > 100 µM | 32.1 µM and 57.9 µM | 33.1 µM and 37.5 µM | 69.7 µM and > 100 µM | > 100 µM | 25.6 µM and 38.2 µM | – | – | – | – | – | – | – | – | –
